Measurements reported in PMC7413254 (Nature Communications, 2020).
Values joined by “and” are separate entries in the source; they are usually repeats but may differ in a detail not shown here. Equal values may be shown once. Read-outs that look alike come from different tables or passages of the source.

Assays:
[1] = system: PfCRT; assay: Influx of VF-6 via PfCRT into the oocyte, solutes tested as potential co-substrates; assay type: cell-based, Plasmodium falciparum; parameters: key: X: Compounds that have been tested as potential co-substrates but are not required for influx of VF-6 via PfCRT into the oocyte; conditions: X marks the solute
[2] = target: PfCRT^3D7 (Plasmodium falciparum, UniProt Q8IBZ9); assay: cell-based; conditions: for IC50: mean ± SEM, n = 5, SEM; for Trans effect on [3H]VF-6 transport via PfCRT (in words): all three PfCRT isoforms (3D7, Ecu1110, Dd2)
PfCRT^3D7, sequence (Q8IBZ9 59-398): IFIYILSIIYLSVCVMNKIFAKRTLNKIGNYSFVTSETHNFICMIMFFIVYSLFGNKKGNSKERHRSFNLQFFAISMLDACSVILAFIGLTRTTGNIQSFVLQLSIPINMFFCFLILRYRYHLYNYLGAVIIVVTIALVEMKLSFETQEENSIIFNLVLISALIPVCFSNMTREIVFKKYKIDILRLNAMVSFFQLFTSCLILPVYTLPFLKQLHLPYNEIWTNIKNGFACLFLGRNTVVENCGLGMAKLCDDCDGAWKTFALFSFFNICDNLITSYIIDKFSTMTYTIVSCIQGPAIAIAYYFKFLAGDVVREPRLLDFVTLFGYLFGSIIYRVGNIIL
Experimental: (§1) The characterisation of [^3H]VF-6 transport via 23 different field and laboratory-derived isoforms of PfCRT was undertaken with oocytes two days post-cRNA-injection (Figs. 3a–j, 4; Supplementary Fig. 2). The oocytes were injected with 25 nL of ND96 buffer (pH 5.5) supplemented with [^3H]VF-6 and unlabelled VF-6 to achieve estimated intracellular concentrations of 1.4 and 200 μM, respectively. Ten oocytes that had resealed at the injection site were transferred to a 5 mL polystyrene round bottom tube (In Vitro Technologies) and washed with 3.5 mL of ND96 buffer before being transferred to separate wells of a white 96-well plate (PerkinElmer). This treatment served to establish the amount of radioactivity within the oocytes immediately prior to the commencement of the transport assay. Another 10 resealed oocytes were transferred to a 5 mL tube and washed with 3.5 mL of ND96 buffer. […] The assay was terminated by removing the reaction buffer with a pipette and washing the oocytes twice with 3.5 mL of ice-cold ND96 buffer. Each oocyte was transferred to a separate well of a white 96-well plate. The oocytes were lysed by the addition of 20 μL of 10% (w/v) SDS and overnight incubation at room temperature. The lysed oocyte was then combined with 150 μL of MicroScint-40 microscintillant (PerkinElmer), the plate covered with a TopSeal-A (PerkinElmer), and the radioactivity measured with a MicroBeta^2 microplate liquid scintillation analyser (PerkinElmer). VF-6 transport was calculated by subtracting the amount of radioactivity (measured in counts per minute) present within the oocytes at the end of the incubation from that measured in the oocytes sampled immediately before the commencement of the assay. The pH-dependence of transport (Fig. 3c) was determined by injecting the oocytes with [^3H]VF-6 suspended in 25 nL ND96 buffer adjusted to pH 5.0, 5.5, 6.0 or 7.0, which corresponded to the injection of 2.5–250 fmol of H^+. The dependence of [^3H]VF-6 transport on Na^+ or Cl^− was examined by injecting the oocytes with [^3H]VF-6 suspended in the control ND96 buffer (pH 5.5) or a version of this buffer that lacked either Na^+ or Cl^− (Supplementary Fig. 2). […] The dependence of peptide transport on Ca^2+ was determined by injecting the oocytes with [^3H]VF-6 suspended in ND96 buffers that contained different concentrations of Ca^2+ (0–5 mM; Supplementary Fig. 2). […] The dependence of PfCRT-mediated transport on the membrane potential was examined by using (1) Na^+ ionophore III in conjunction with the Na^+ gradients listed in Supplementary Data 7 and (2) Cl^− ionophore III in conjunction with the Cl^− gradients listed in Supplementary Data 7 to clamp the membrane potential of the oocyte from −80 to +80 mV. […] The kinetic parameters for VF-6 transport via different isoforms of PfCRT (Figs. 3e and 4a) were determined in SigmaPlot Windows Version 11.0 by a least-squares fit of the Michaelis–Menten equation to the data.
(§2) A subset of assays measured the ability of solutes known to interact with PfCRT to either cis-inhibit, trans-inhibit or trans-stimulate [^3H]VF-6 transport. These experiments involved adding these solutes to either the cis- or trans-side of the membrane relative to [^3H]VF-6. […] At least five independent experiments were performed (on different days and using oocytes from different frogs), and within each experiment measurements were made from ten oocytes per treatment.

[3] = target: PfCRT^Dd2 (Plasmodium falciparum, UniProt Q9N623, A220S/I356T/K76T/M74I/N326S/N75E/Q271E/R371I); assay: cell-based; conditions: for [3H]VF-6 transport, PfCRTDd2 (% PfCRT3D7 control): trans-inhibition, treatment 45 mM; for IC50: mean ± SEM, n = 5, SEM
PfCRT^Dd2, sequence (Q9N623 whole entry A220S/I356T/K76T/M74I/N326S/N75E/Q271E/R371I): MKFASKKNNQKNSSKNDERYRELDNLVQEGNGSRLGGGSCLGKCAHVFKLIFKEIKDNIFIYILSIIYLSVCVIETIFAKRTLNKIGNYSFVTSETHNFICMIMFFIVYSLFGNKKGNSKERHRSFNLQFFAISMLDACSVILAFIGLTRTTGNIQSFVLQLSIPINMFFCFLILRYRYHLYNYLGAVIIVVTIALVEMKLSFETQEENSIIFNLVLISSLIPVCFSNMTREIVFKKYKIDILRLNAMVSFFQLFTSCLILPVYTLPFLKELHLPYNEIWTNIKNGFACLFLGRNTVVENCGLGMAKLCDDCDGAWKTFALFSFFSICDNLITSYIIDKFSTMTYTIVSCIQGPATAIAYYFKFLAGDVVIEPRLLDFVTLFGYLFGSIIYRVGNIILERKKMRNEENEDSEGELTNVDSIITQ
Experimental: as §1, §2

[4] = target: PfCRT^Ecu1110 (Plasmodium falciparum, UniProt Q9N623, A220S/I356L/K76T/N326D); assay: cell-based; conditions: for [3H]VF-6 transport, PfCRTEcu1110 (% PfCRT3D7 control): trans-inhibition, treatment 45 mM; for IC50: mean ± SEM, n = 5, SEM
PfCRT^Ecu1110, sequence (Q9N623 whole entry A220S/I356L/K76T/N326D): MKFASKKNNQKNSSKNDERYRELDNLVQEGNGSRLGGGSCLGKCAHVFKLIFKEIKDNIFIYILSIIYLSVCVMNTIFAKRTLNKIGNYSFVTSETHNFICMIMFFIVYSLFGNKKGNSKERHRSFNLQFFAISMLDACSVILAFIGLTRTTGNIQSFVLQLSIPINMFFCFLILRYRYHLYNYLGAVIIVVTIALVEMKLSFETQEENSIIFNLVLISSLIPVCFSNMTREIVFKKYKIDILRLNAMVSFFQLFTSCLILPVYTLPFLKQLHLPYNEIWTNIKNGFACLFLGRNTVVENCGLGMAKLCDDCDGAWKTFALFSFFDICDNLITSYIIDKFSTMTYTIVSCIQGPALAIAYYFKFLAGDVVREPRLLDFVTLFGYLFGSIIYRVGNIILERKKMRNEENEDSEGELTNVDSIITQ
Experimental: as §1, §2

[5] = trans-inhibition, treatment 45 mM, Experiment 1
[6] = trans-inhibition, treatment 45 mM, Experiment 2
[7] = trans-inhibition, treatment 45 mM, Experiment 3
[8] = trans-inhibition, treatment 45 mM, Experiment 4
[9] = trans-inhibition, treatment 45 mM, Experiment 5
[10] = Cis-inhibition IC50 of [3H]VF-6 transport, PfCRTDd2, drug on same side as [3H]VF-6
[11] = Cis-inhibition IC50 of [3H]VF-6 transport, PfCRTEcu1110, drug on same side as [3H]VF-6

| Molecule | Compounds that have been tested as potential co-substrates but are not required for influx of VF-6 via PfCRT into the oocyte [1] | [3H]VF-6 transport, PfCRTDd2 (% PfCRT3D7 control) ([3]; Experiment 1) | [3H]VF-6 transport, PfCRTDd2 (% PfCRT3D7 control) ([3]; Experiment 2) | [3H]VF-6 transport, PfCRTDd2 (% PfCRT3D7 control) ([3]; Experiment 3) | [3H]VF-6 transport, PfCRTDd2 (% PfCRT3D7 control) ([3]; Experiment 4) | [3H]VF-6 transport, PfCRTDd2 (% PfCRT3D7 control) ([3]; Experiment 5) | [3H]VF-6 transport, PfCRTEcu1110 (% PfCRT3D7 control) ([4]; Experiment 1) | [3H]VF-6 transport, PfCRTEcu1110 (% PfCRT3D7 control) ([4]; Experiment 2) | [3H]VF-6 transport, PfCRTEcu1110 (% PfCRT3D7 control) ([4]; Experiment 3) | [3H]VF-6 transport, PfCRTEcu1110 (% PfCRT3D7 control) ([4]; Experiment 4) | [3H]VF-6 transport, PfCRTEcu1110 (% PfCRT3D7 control) ([4]; Experiment 5) | further results |
| --- | --- | --- | --- | --- | --- | --- | --- | --- | --- | --- | --- | --- |
| N[C@@H](Cc1c[nH]cn1)C(=O)O [L-histidine] | X | – | – | – | – | – | – | – | – | – | – | – |
| N[C@@H](CCC(=O)O)C(=O)O [L-glutamic acid] | X | – | – | – | – | – | – | – | – | – | – | – |
| N[C@@H](CS)C(=O)O [L-cysteine] | X | – | – | – | – | – | – | – | – | – | – | – |
| PVNF [VF-6-derived peptide] | – | 8.23 | 8.92 | 7.3 | 7.53 | 7.44 | 10.55 | 12.46 | 11.35 | 10.58 | 10.07 | [3H]VF-6 transport, PfCRT3D7 (% PfCRT3D7 control) [2]: 25.32 % PfCRT3D7 control and 24.64 % PfCRT3D7 control and 25.23 % PfCRT3D7 control and 25.9 % PfCRT3D7 control and 23.94 % PfCRT3D7 control |
| CC(C)C[C@H](N)C(=O)O [L-leucine] | X | – | – | – | – | – | – | – | – | – | – | – |
| DPVNF [VF-6-derived peptide] | – | 9.35 | 8.35 | 9.55 | 8.26 | 9.66 | 7.36 | 8.38 | 7.23 | 8.43 | 7.77 | [3H]VF-6 transport, PfCRT3D7 (% PfCRT3D7 control) [2, 5]: 21.64 % PfCRT3D7 control; [3H]VF-6 transport, PfCRT3D7 (% PfCRT3D7 control) [2, 6]: 22.13 % PfCRT3D7 control; [3H]VF-6 transport, PfCRT3D7 (% PfCRT3D7 control) [2, 7]: 19.38 % PfCRT3D7 control; [3H]VF-6 transport, PfCRT3D7 (% PfCRT3D7 control) [2, 8]: 18.32 % PfCRT3D7 control; [3H]VF-6 transport, PfCRT3D7 (% PfCRT3D7 control) [2, 9]: 19.24 % PfCRT3D7 control |
| VDPVN [VF-6-derived peptide] | – | 7.28 | 7.49 | 7.54 | 7.59 | 7.33 | 6.34 | 5.74 | 6.34 | 6.94 | 6.25 | [3H]VF-6 transport, PfCRT3D7 (% PfCRT3D7 control) [2, 5]: 20.24 % PfCRT3D7 control; [3H]VF-6 transport, PfCRT3D7 (% PfCRT3D7 control) [2, 6]: 19.6 % PfCRT3D7 control; [3H]VF-6 transport, PfCRT3D7 (% PfCRT3D7 control) [2, 7]: 22.64 % PfCRT3D7 control; [3H]VF-6 transport, PfCRT3D7 (% PfCRT3D7 control) [2, 8]: 22.05 % PfCRT3D7 control; [3H]VF-6 transport, PfCRT3D7 (% PfCRT3D7 control) [2, 9]: 19.48 % PfCRT3D7 control |
| CCN(CC)CCCC(C)Nc1ccnc2cc(Cl)ccc12 (centres unmarked) [CQ, chloroquine, reference compound] | – | – | – | – | – | – | – | – | – | – | – | IC50 ([2]; Cis-inhibition IC50 of [3H]VF-6 transport, PfCRT3D7, drug on same side as [3H]VF-6): 110 ± 5.9 µM; IC50 ([2]; Trans-inhibition IC50 of [3H]VF-6 transport, PfCRT3D7, drug on opposite side to [3H]VF-6): 77 ± 5.2 µM; Extracellular concentration giving modest trans-stimulation of [3H]VF-6 transport ([2]; all three PfCRT isoforms): ≥ 500 µM; IC50 [3, 10]: 53 ± 2.8 µM; IC50 ([3]; Trans-inhibition IC50 of [3H]VF-6 transport, PfCRTDd2, drug on opposite side to [3H]VF-6): 54 ± 3.6 µM; IC50 [4, 11]: 72 ± 3.1 µM; IC50 ([4]; Trans-inhibition IC50 of [3H]VF-6 transport, PfCRTEcu1110, drug on opposite side to [3H]VF-6): 62 ± 2.6 µM |
| DPVN [VF-6-derived peptide] | – | 7.83 | 7.93 | 7.34 | 7.75 | 8.53 | 9.56 | 9.46 | 8.39 | 9.45 | 9.93 | [3H]VF-6 transport, PfCRT3D7 (% PfCRT3D7 control) [2]: 26.43 % PfCRT3D7 control and 27.43 % PfCRT3D7 control and 23.23 % PfCRT3D7 control and 20.32 % PfCRT3D7 control and 20.85 % PfCRT3D7 control |
| CC(C)(C)NC(=O)[C@@H]1C[C@@H]2CCCC[C@@H]2CN1C[C@@H](O)[C@H](Cc1ccccc1)NC(=O)[C@H](CC(N)=O)NC(=O)c1ccc2ccccc2n1 [Saquinavir, saquinavir, reference compound] | – | – | – | – | – | – | – | – | – | – | – | Trans effect on [3H]VF-6 transport via PfCRT (in words) [2]: trans-stimulated; Trans effect on [3H]VF-6 transport via PfCRT (in words) ([2]; listed as SQV): Trans-stimulates; IC50 ([2]; drug on same side as [3H]VF-6, read-out: Cis-inhibition IC50 of [3H]VF-6 transport, PfCRT3D7): 50 ± 2.3 µM; IC50 [3, 10]: 89 ± 3.8 µM; IC50 [4, 11]: 74 ± 3.9 µM |
